Measured values: patent US6365215B1, “Oral sensory perception-affecting compositions containing dimethyl sulfoxide, complexes thereof and salts thereof” (International Flavors & Fragrances Inc., priority 2000, dated 2002)

Tests used:
[1] = Perceived cooling in screening base: silica toothpaste base with 0.4% saccharin (Table II); assay type: in vivo
Text: The following Table II sets forth the effect in a screening base, in this case: silica toothpaste base containing 0.4% saccharin of various “second compounds” in admixture with dimethyl sulfoxide, as follows: […]

[2] = Comparison of perceived cooling: second compound plus dimethyl sulfoxide vs. second compound alone (Table I); assay type: in vivo; conditions: scale 0-10
Text: is admixed with such “second compound(s),” the resulting mixture as stated, supra, has a highly intensified oral sensory perception effect, for example, a “highly intensified cooling effect” or a “highly intensified hot, burning effect.” Such effects are highly desirable in the use of certain oral care products such as mouthwashes, toothpastes and the like as set forth, supra. Thus, the following Table I sets forth a comparison of a “control” which is a “second compound” taken alone vs. the mixture of dimethyl sulfoxide with the said “second compound”: […]

[3] = second compound 30 ppm + DMSO 0.1 ppm
[4] = second compound 30 ppm + DMSO 100 ppm
[5] = second compound alone 30 ppm (control for DMSO 0.1 ppm line)
[6] = second compound alone 30 ppm (control for DMSO 100 ppm line)
[7] = scaled 1-10, 2nd compound 30 ppm + DMSO 0.1 ppm
[8] = scaled 1-10, 2nd compound 30 ppm + DMSO 1 ppm
[9] = scaled 1-10, 2nd compound alone 30 ppm (line of DMSO 0.1 ppm)
[10] = scaled 1-10, 2nd compound alone 30 ppm (line of DMSO 1 ppm)

With `CC1CCC(C(C)C)C(O)C1` (centres unmarked) [Menthol, menthol] the “Observed Effect Scaled at 1-10 vs. 2nd Compound Alone, perceived cooling: with DMSO” value ([1]; scaled 1-10, 2nd compound 0.50% + DMSO 1 ppm) was 8.2, the “Observed Effect Scaled at 1-10 vs. 2nd Compound Alone, perceived cooling: 2nd compound alone” value ([1]; scaled 1-10, 2nd compound alone 0.50% (line of DMSO 1 ppm)) was 1.6 and the “Effect of Mixture vs. Control, perceived cooling: mixture” value ([2]; second compound 5 ppm + DMSO 0.1 ppm) was 8. The “Effect of Mixture vs. Control, perceived cooling: mixture” value ([2]; second compound 10 ppm + DMSO 1 ppm) was 9, the “Effect of Mixture vs. Control, perceived cooling: mixture” value ([2]; second compound 30 ppm + DMSO 5 ppm) was 9.5 and the “Effect of Mixture vs. Control, perceived cooling: mixture” value ([2]; second compound 100 ppm + DMSO 10 ppm) was 8.7. The “Effect of Mixture vs. Control, perceived cooling: control” value ([2]; second compound alone 5 ppm (control for DMSO 0.1 ppm line)) was 1.5, the “Effect of Mixture vs. Control, perceived cooling: control” value ([2]; second compound alone 10 ppm (control for DMSO 1 ppm line)) was 1.3 and the “Effect of Mixture vs. Control, perceived cooling: control” value ([2]; second compound alone 30 ppm (control for DMSO 5 ppm line)) was 1.1. The “Effect of Mixture vs. Control, perceived cooling: control” value ([2]; second compound alone 100 ppm (control for DMSO 10 ppm line)) was 2.
For `CC1CCC(C(C)C)C(OC(=O)C(C)O)C1` (centres unmarked) [Menthyl lactate], the “Effect of Mixture vs. Control, perceived cooling: mixture” value [2, 3] was 8.4, the “Effect of Mixture vs. Control, perceived cooling: mixture” value [2, 4] was 8.2 and the “Effect of Mixture vs. Control, perceived cooling: control” value [2, 5] was 1.7. For the same compound, the “Effect of Mixture vs. Control, perceived cooling: control” value [2, 6] was 2.1.
With `CCNC(=O)C1CC(C)CCC1C(C)C` (centres unmarked) [WS 3 ®] the “Observed Effect Scaled at 1-10 vs. 2nd Compound Alone, perceived cooling: with DMSO” value [1, 7] was 9.1, the “Observed Effect Scaled at 1-10 vs. 2nd Compound Alone, perceived cooling: with DMSO” value [1, 8] was 9.0 and the “Observed Effect Scaled at 1-10 vs. 2nd Compound Alone, perceived cooling: 2nd compound alone” value [1, 9] was 1.7. For the same compound, the “Observed Effect Scaled at 1-10 vs. 2nd Compound Alone, perceived cooling: 2nd compound alone” value [1, 10] was 1.6, the “Effect of Mixture vs. Control, perceived cooling: mixture” value [2, 3] was 9.3 and the “Effect of Mixture vs. Control, perceived cooling: mixture” value [2, 4] was 9.0. For the same compound, the “Effect of Mixture vs. Control, perceived cooling: control” value [2, 5] was 1.5 and the “Effect of Mixture vs. Control, perceived cooling: control” value [2, 6] was 1.6.
With `CCC(C)C(C(=O)NC(C)C)C(C)C` (centres unmarked) [WS 23 ®] the “Observed Effect Scaled at 1-10 vs. 2nd Compound Alone, perceived cooling: with DMSO” value [1, 7] was 9.8, the “Observed Effect Scaled at 1-10 vs. 2nd Compound Alone, perceived cooling: with DMSO” value [1, 8] was 9.9 and the “Observed Effect Scaled at 1-10 vs. 2nd Compound Alone, perceived cooling: 2nd compound alone” value [1, 9] was 2.4. The “Observed Effect Scaled at 1-10 vs. 2nd Compound Alone, perceived cooling: 2nd compound alone” value [1, 10] was 2.6, the “Effect of Mixture vs. Control, perceived cooling: mixture” value [2, 3] was 9.6 and the “Effect of Mixture vs. Control, perceived cooling: mixture” value [2, 4] was 9.2. For the same compound, the “Effect of Mixture vs. Control, perceived cooling: control” value [2, 5] was 2.4 and the “Effect of Mixture vs. Control, perceived cooling: control” value [2, 6] was 2.2.
In the case of `CC1CCC(C(C)C)C(OC(=O)CCC(=O)O)C1` (centres unmarked) [Monomenthyl succinate, menthyl succinate], the “Observed Effect Scaled at 1-10 vs. 2nd Compound Alone, perceived cooling: with DMSO” value ([1]; scaled 1-10, 2nd compound 100 ppm + DMSO 0.1 ppm) is reported as 9.0, the “Observed Effect Scaled at 1-10 vs. 2nd Compound Alone, perceived cooling: with DMSO” value ([1]; scaled 1-10, 2nd compound 100 ppm + DMSO 1 ppm) is reported as 9.2 and the “Observed Effect Scaled at 1-10 vs. 2nd Compound Alone, perceived cooling: 2nd compound alone” value ([1]; scaled 1-10, 2nd compound alone 100 ppm (line of DMSO 0.1 ppm)) is reported as 3.5. For the same compound, the “Observed Effect Scaled at 1-10 vs. 2nd Compound Alone, perceived cooling: 2nd compound alone” value ([1]; scaled 1-10, 2nd compound alone 100 ppm (line of DMSO 1 ppm)) was 3.7, the “Effect of Mixture vs. Control, perceived cooling: mixture” value ([2]; second compound 100 ppm + DMSO 0.1 ppm) was 9.1 and the “Effect of Mixture vs. Control, perceived cooling: mixture” value ([2]; second compound 100 ppm + DMSO 100 ppm) was 8.7. The “Effect of Mixture vs. Control, perceived cooling: control” value ([2]; second compound alone 100 ppm (control for DMSO 0.1 ppm line)) was 3.8 and the “Effect of Mixture vs. Control, perceived cooling: control” value ([2]; second compound alone 100 ppm (control for DMSO 100 ppm line)) was 2.5.
